As a reminder, the IC50 is the concentration that gives 50% inhibition.

The target in test [1] is T1, Tyrosine-protein kinase Yes (Homo sapiens, UniProt P07947). The test is described as follows: Inhibition of Yes1 (unknown origin) by [gamma-33P]-ATP radiolabeled enzyme activity assay.
Test [2] has as its target T1, Tyrosine-protein kinase Yes. The test is described as follows: Inhibition of Yes1 (unknown origin) assessed as kinase-dependent enzymatic production of ADP from ATP using coupled luminescence-based reaction by ADP-Glo kinase assay. In general terms: ADP-Glo turns the ADP formed in a reaction into a luminescent signal.
The nature of test [3]: Antiproliferative activity against human Rh30 cells after 48 hrs by CellTiter-Glo luminescent assay. Particulars: SJRH30, 48 h. In general terms: ATP-based viability assays read luminescence as a measure of living cells.
In the next test the test system is RD. The test is described as follows: Antiproliferative activity against human RD cells after 48 hrs by CellTiter-Glo luminescent assay.

T1 sequence (P07947 whole entry): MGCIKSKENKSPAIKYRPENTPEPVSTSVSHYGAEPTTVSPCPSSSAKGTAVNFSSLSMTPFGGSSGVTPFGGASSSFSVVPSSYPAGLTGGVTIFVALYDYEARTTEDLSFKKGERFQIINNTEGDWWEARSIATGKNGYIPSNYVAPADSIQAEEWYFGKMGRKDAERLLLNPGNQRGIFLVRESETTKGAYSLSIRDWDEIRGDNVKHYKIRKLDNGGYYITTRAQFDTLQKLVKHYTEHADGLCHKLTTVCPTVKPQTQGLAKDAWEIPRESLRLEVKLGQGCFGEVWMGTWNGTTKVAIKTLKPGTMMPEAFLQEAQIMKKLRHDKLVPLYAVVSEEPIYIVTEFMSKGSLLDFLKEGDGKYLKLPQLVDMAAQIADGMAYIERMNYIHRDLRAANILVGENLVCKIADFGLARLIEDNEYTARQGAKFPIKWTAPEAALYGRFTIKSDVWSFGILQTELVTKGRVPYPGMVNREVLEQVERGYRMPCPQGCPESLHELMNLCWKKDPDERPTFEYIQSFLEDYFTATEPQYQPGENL

Consider `CN1CCC(CNc2ccc3ncc(-c4cccc(OC(F)(F)F)c4)n3n2)CC1` [SGI-1776], for which the IC50 in test [1] worked out at 240 nM; in test [2] it was 2670 nM.
For `c1cc(-c2cnn3cc(-c4ccc(OCCN5CCCCC5)cc4)cnc23)ccn1` [DORSOMORPHIN] the same measures were 29.8 nM and 196 nM.
Turning to `CC(C)Oc1cc(Nc2nc(N[C@@H](C)c3ccc(F)cn3)ncc2Cl)n[nH]1`, the IC50 in test [3] was found to be 1800 nM; in test [1] it was 3 nM; in the test with RD, 5300 nM; in test [2] it was 39.1 nM.

(Values after ChEMBL document CHEMBL2407041, “Identification of potent Yes1 kinase inhibitors using a library screening approach” (Bioorg Med Chem Lett, 2013).)
